This test deals with Methionine aminopeptidase 2 (Homo sapiens, UniProt P50579). The test can be described thus: Biochemical Assays. Conditions: pH 7.5. The procedure:
Stock solutions for all assays were prepared in DMSO (10 mM) and stored at −20 °C. Assays were performed in 96 well plates (Greiner) at a total reaction volume of 100 μL. […] Then, the substrate Met-Gly-Met-Met was added to a final concentration of 400 μM. After an incubation period of 15 min (HsMetAP1), 20 min (EcMetAP), or 60 min (HsMetAP2) at 37 °C, the enzyme reactionwas stopped by adding 10 μL 4% trifluoroacetic acid (TFA), and the plate was centrifuged at 1000g for 10 min. Detection of the product Gly-Met-Met was performed by HPLC: C18 column (Dr. Maisch, ReproSil-Pur 120 ODS-3, 3 μm, 50 × 2 mm). An 80 μL injection volume was eluted with mobile phases A (H2O and 0.1% TFA, filtered, degasse

A value given as a limit tells only on which side of the number the result lay.

Chain of Methionine aminopeptidase 2 (P50579 whole entry): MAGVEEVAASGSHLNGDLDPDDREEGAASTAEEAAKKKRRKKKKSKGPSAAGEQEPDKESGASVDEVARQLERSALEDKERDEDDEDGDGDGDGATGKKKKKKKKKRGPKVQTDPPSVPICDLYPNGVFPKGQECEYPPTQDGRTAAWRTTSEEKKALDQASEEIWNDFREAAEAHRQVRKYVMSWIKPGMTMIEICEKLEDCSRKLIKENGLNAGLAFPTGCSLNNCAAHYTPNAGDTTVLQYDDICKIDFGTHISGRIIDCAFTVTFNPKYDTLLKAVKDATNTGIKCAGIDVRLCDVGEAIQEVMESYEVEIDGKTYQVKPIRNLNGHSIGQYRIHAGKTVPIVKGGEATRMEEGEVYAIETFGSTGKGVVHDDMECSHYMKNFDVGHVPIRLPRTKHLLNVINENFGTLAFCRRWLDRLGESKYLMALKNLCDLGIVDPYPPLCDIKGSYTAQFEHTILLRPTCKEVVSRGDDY

For the compound `O=C(O[C@H]1CC[C@]2(CO2)c2c1nnn2Cc1ccccc1)c1ccccc1` (relative stereo) [(2'R*,7S*)-3-benzyl-3,5,6,7-tetrahydrospiro [benzo[d][1,2,3]triazole-4,2'-oxiran]-7-yl benzoate (29b)], the IC50 (commonly the concentration that inhibits the measured activity by half) was more than 50 µM.

For `O=C1CCC2(CO2)c2c1nnn2Cc1ccc(Cl)cc1` (centres undefined) [3-(4-chlorobenzyl)-5,6-dihydrospiro[benzo[d][1,2,3]triazole-4,2'-oxiran]-7(3H)-one (27)], it took 0.52 µM to reach half-maximal inhibition (IC50).

As for `CC(C)NC(=O)O[C@H]1CC[C@]2(CO2)c2c1nnn2Cc1ccccc1` (relative stereo) [(2'R*,7S*)-3-benzyl-3,5,6,7-tetrahydrospiro [benzo[d][1,2,3]triazole-4,2'-oxiran]-7-yl isopropylcarbamate (30b)], 46 µM corresponded to half-maximal inhibition (IC50).

Compound `O=C(O[C@@H]1CC[C@]2(CO2)c2c1nnn2Cc1ccccc1)c1ccccc1` (relative stereo) [(2'R*,7R*)-3-benzyl-3,5,6,7-tetrahydrospiro [benzo[d][1,2,3]triazole-4,2'-oxiran]-7-yl benzoate (29a)] yielded an IC50 of 1.4 µM. This IC50 is about 33-fold lower than that of the compound before.

Consider `O=C1CCC2(CO2)c2c1nnn2CC1CCCCC1` (centres undefined) [3-(cyclohexylmethyl)-5,6-dihydrospiro[benzo[d][1,2,3]triazole-4,2'-oxiran]-7(3H)-one (21)], for which the IC50 is more than 50 µM.

`O=C1CCC2(CO2)c2c1nnn2Cc1ccc(F)cc1` (centres undefined) [3-(4-fluorobenzyl)-5,6-dihydrospiro[benzo[d][1,2,3]triazole-4,2'-oxiran]-7(3H)-one (26)] yielded an IC50 of 0.25 µM.

Compound `CC(C)NC(=O)O[C@@H]1CC[C@]2(CO2)c2c1nnn2Cc1ccccc1` (relative stereo) [(2'R*,7R*)-3-benzyl-3,5,6,7-tetrahydrospiro [benzo[d][1,2,3]triazole-4,2'-oxiran]-7-yl isopropylcarbamate (30a)] had an IC50 of 0.78 µM.

In turn, `O=C1CCC2(CO2)c2c1nnn2Cc1ccccc1` (centres undefined) [3-benzyl-5,6-dihydrospiro[benzo[d][1,2,3]triazole-4,2'-oxiran]-7(3H)-one (22)] gave an IC50 of 2.9 µM.

For `COc1ccc(Cn2nnc3c2[C@]2(CC[C@H]3OC(=O)c3ccccc3)CO2)cc1` [(2'R*,7R*)-3-(4-methoxybenzyl)-3,5,6,7-tetrahydrospiro[benzo[d][1,2,3]triazole-4,2'-oxiran]-7-yl benzoate (17a)], the half-maximal inhibitory concentration (IC50) came to 0.93 µM. This IC50 lies about 3.1-fold lower than the previous one.

Compound `COc1ccc(Cn2nnc3c2[C@]2(CC[C@H]3OC(=O)NCC(C)C)CO2)cc1` (relative stereo) [(2'R*,7R*)-3-(4-methoxybenzyl)-3,5,6,7-tetrahydrospiro[benzo[d][1,2,3]triazole-4,2'-oxiran]-7-yl isobutylcarbamate (32)] had an IC50 of 0.6 µM.

The compound `COc1ccc(Cn2nnc3c2[C@]2(CC[C@H]3OC(=O)Nc3ccccc3)CO2)cc1` (relative stereo) [(2'R*,7R*)-3-(4-methoxybenzyl)-3,5,6,7-tetrahydrospiro[benzo[d][1,2,3]triazole-4,2'-oxiran]-7-yl phenylcarbamate (34)] showed a half-maximal inhibitory concentration (IC50) of 0.99 µM.

As to `O=C1CCC2(CO2)c2c1nnn2Cc1ccc(C(F)(F)F)cc1` (centres undefined) [3-(4-(trifluoromethyl)benzyl)-5,6-dihydrospiro[benzo[d][1,2,3]triazole-4,2'-oxiran]-7(3H)-one (28)], 0.44 µM corresponded to half-maximal inhibition (IC50).

Regarding `N#Cc1cccc(Cn2nnc3c2C2(CCC3=O)CO2)c1` (centres undefined) [3-((7-oxo-6,7-dihydrospiro[benzo[d][1,2,3]triazole-4,2'-oxiran]-3(5H)-yl)methyl)benzonitrile (24)], half-maximal inhibition (IC50) was put at 1.1 µM.

For `COc1ccc(Cn2nnc3c2[C@]2(CC[C@@H]3OC(=O)c3ccccc3)CO2)cc1` [(2'R*,7S*)-3-(4-methoxybenzyl)-3,5,6,7-tetrahydrospiro[benzo[d][1,2,3]triazole-4,2'-oxiran]-7-yl benzoate (17b)], the IC50 came out at 35 µM. This IC50 is about 32-fold higher than that of the compound before.

The compound `O=C1CCC2(CO2)c2c1nnn2Cc1ccc2ccccc2c1` (centres undefined) [3-(naphthalen-2-ylmethyl)-5,6-dihydrospiro[benzo[d][1,2,3]triazole-4,2'-oxiran]-7(3H)-one (25)] yielded an IC50 of 0.59 µM. Against the preceding compound, the IC50 is about 59-fold lower.

For `Cc1ccccc1Cn1nnc2c1C1(CCC2=O)CO1` (centres undefined) [3-(2-methylbenzyl)-5,6-dihydrospiro[benzo[d][1,2,3]triazole-4,2'-oxiran]-7(3H)-one (23)], inhibition was half-maximal at 2.3 µM (IC50). This IC50 is about 3.9-fold higher than that of the compound before.

As to `COc1ccc(Cn2nnc3c2C2(CCC3=O)CO2)cc1` (centres undefined) [3-(4-methoxybenzyl)-5,6-dihydrospiro[benzo[d][1,2,3]triazole-4,2'-oxiran]-7(3H)-one (14)], the IC50 came out at 0.46 µM.

`COc1ccc(Cn2nnc3c2[C@]2(CC[C@H]3NC(=O)OCC(C)C)CO2)cc1` [isobutyl ((2'R*,7R*)-3-(4-methoxybenzyl)-3,5,6,7-tetrahydrospiro[benzo[d][1,2,3]triazole-4,2'-oxiran]-7-yl)carbamate (35)] displayed an IC50 of 0.6 µM. This IC50 and that of the compound before are within 1.5-fold of each other.

`C=C1CCC(OC(=O)c2ccccc2)c2nnn(Cc3ccc(OC)cc3)c21` (centres undefined) [1-[(4-methoxyphenyl)methyl]-7-methylidene-4,5,6,7-tetrahydro-1H-1,2,3-benzotriazol-4-yl benzoate (16)] came in with an IC50 of more than 50 µM.

For the origin of these results see BindingDB's records for doi:10.1021/acschembio.5b00755 (German Cancer Research Center (Dkfz), 2016).
